The target in this test is T1, human GPR119 (Homo sapiens, UniProt Q8TDV5).
T1 sequence (Q8TDV5 1-335): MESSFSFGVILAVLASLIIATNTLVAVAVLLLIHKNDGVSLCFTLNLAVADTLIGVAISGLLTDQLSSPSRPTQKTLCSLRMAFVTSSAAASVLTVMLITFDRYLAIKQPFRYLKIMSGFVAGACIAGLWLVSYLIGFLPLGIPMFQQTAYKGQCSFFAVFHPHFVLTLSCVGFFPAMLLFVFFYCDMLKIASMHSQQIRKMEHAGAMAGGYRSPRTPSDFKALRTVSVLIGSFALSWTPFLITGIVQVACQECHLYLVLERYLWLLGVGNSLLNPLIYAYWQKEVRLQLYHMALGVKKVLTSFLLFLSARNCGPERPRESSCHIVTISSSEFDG
Briefly: GPR 119 radioligand binding assay ([3H]-Compound A or [3H]-Compound B, membranes of HEK 293FT cells over-expressing hGPR119). The conditions noted are these: calculated from IC50 by Cheng-Prusoff; each line is a separate determination. As for the experimental part:
HEK 293FT cells (Invitrogen, Carlsbad, Calif.) were grown in a shake flask in 293Freestyle medium (Invitrogen) supplemented with 50 microg/mL neomycin and 10 mM HEPES (37 C, 8% carbon dioxide, shaking). The cells were centrifuged gently (approximately 500×g, 10 minutes) and the pellet resuspended in a mixture of Dulbecco's PBS(minus Mg++/−Ca++) supplemented with 18% fetal bovine serum (Sigma Aldrich) and P1 virus such that the multiplicity of infection (MOI) was 10 and the final cell density was 1.3×10^6/mL (total volume 2.5 liters). The cells were transferred to a 5 liter Wave Bioreactor Wavebag (Wave Technologies, MA) and incubated for 4 hours at 27 degrees Celsius (17 rocks/min, 7 degrees platform angle); at the end of the incubation period, an equal volume(2.5 liters) of 293Freestyle medium supplemented with 30 mM sodium butyrate (Sigma Aldrich) was added (final concentration=15 mM), and the cells were grown for 20 hours (37 degrees Celsius, 8% CO2 [0.2 liters/min}, 25 rocks/minute, 7 degrees platform angle). […]
The frozen cells were thawed on ice and centrifuged at 700×g (1400 rpm) for 10 minutes at 4 degrees Celsius. […] The protein concentration was determined using the Pierce BCA protein assay kit (Pierce reagents A #23223 and B #23224). […]

Consider `Cc1c(O[C@@H]2[C@@H]3COC[C@H]2CN(C(=O)OC(C)C)C3)ncnc1N1CCc2cc(S(C)(=O)=O)ccc21` [Example 23, Isopropyl (9-syn)-9-({5-methyl-6-[5-(methylsulfonyl)-2,3-dihydro-1H-indol-1-yl]pyrimidin-4-yl}oxy)-3-oxa-7-azabicyclo[3.3.1]nonane-7-carboxylate], for which the Ki – broadly, a dissociation constant, usually derived from enzyme kinetics or from competition with a known ligand – is 130 nM. On to `Cc1c(O[C@@H]2[C@@H]3COC[C@H]2CN(C(=O)OC2(C)CC2)C3)ncnc1N1CCc2ncccc21` [Example 28, 1-Methylcyclopropyl (9-syn)-9-{[6-(2,3-dihydro-1H-pyrrolo[3,2-b]pyridin-1-yl)-5-methylpyrimidin-4-yl]oxy}-3-oxa-7-azabicyclo[3.3.1]nonane-7-carboxylate], for which the Ki was 45.8 nM.

(Values after US20120052130A1, “GPR 119 MODULATORS” (Pfizer Inc., priority 2009, published 2012).)
